Measurements reported in ChEMBL document CHEMBL4837267, “Development of Potent 3-Br-isoxazoline-Based Antimalarial and Antileishmanial Compounds” (ACS Med Chem Lett, 2021).
Calls of active or inactive are those of the source. No cut-off for these calls is given here.

How the values were obtained:
Plasmodium falciparum [1] = assay: Antimalarial activity against chloroquine sensitive Plasmodium falciparum D10 infected in human red blood cells assessed as reduction in parasite growth measured after 72 hrs by parasite lactate dehydrogenase assay; format: functional, organism-based; details: D10, 72 h
Plasmodium falciparum [2] = assay: Antimalarial activity against chloroquine resistant Plasmodium falciparum W2 infected in human red blood cells assessed as reduction in parasite growth measured after 72 hrs by parasite lactate dehydrogenase assay; format: functional, organism-based; details: W2, 72 h
Leishmania infantum [3] = assay: Antileishmanial activity against Leishmania infantum (MHOM/TN/80/IPTI) promastigotes assessed as reduction in parasite viability measured after 72 hrs by MTT assay; format: functional, organism-based; details: MHOM/TN/80/IPT
Leishmania tropica [4] = assay: Antileishmanial activity against Leishmania tropica (MHOM/SY/2012/ISS3130) promastigotes assessed as reduction in parasite viability measured after 72 hrs by MTT assay; format: functional, organism-based; details: MHOM/SY/2012/ISS3130, 72 h
Leishmania infantum [5] = assay: Antileishmanial activity against Leishmania infantum (MHOM/TN/80/IPTI) promastigotes assessed as reduction in parasite viability at 60 uM measured after 72 hrs by MTT assay; format: functional, organism-based; details: MHOM/TN/80/IPT
Leishmania tropica [6] = assay: Antileishmanial activity against Leishmania tropica (MHOM/SY/2012/ISS3130) promastigotes assessed as reduction in parasite viability at 60 uM measured after 72 hrs by MTT assay; format: functional, organism-based
Plasmodium falciparum [7] = assay: Antimalarial activity against chloroquine sensitive Plasmodium falciparum D10 infected in human red blood cells assessed as reduction in parasite growth at 60 uM measured after 72 hrs by parasite lactate dehydrogenase assay; format: functional, organism-based
Plasmodium falciparum [8] = assay: Antimalarial activity against chloroquine resistant Plasmodium falciparum W2 infected in human red blood cells assessed as reduction in parasite growth at 60 uM measured after 72 hrs by parasite lactate dehydrogenase assay; format: functional, organism-based
Plasmodium falciparum [9] = assay: Antimalarial activity against […] late stage (IV-V) Plasmodium falciparum 3D7 gametocytes expressing CBG99 luciferase infected in human red blood cells assessed as reduction in gametocyte viability measured after 72 hrs by luminescence based assay; format: functional, organism-based; details: 3D7, 72 h
BMDM = assay: Cytotoxicity against mouse BMDM cells assessed as reduction in cell viability incubated for 72 hrs by MTT assay; format: cell-based
[10] = Selectivity index, ratio of IC50 for antimalarial activity against chloroquine sensitive Plasmodium falciparum D10 infected in human red blood cells to IC50 for cytotoxicity against mouse BMDM cells; format: toxicity, cell-based; details: read-out: Selectivity Index
[11] = Selectivity index, ratio of IC50 for antimalarial activity against chloroquine resistance Plasmodium falciparum W2 infected in human red blood cells to IC50 for Cytotoxicity against mouse BMDM cells; format: toxicity, cell-based; details: read-out: Selectivity Index
[12] = Selectivity index, ratio of IC50 for antileishmanial activity against Leishmania infantum (MHOM/TN/80/IPTI) promastigotes to IC50 for Cytotoxicity against mouse BMDM cells; format: toxicity, cell-based; details: read-out: Selectivity Index
[13] = Selectivity index, ratio of IC50 for antileishmanial activity against Leishmania tropica (MHOM/SY/2012/ISS3130) promastigotes to IC50 for Cytotoxicity against mouse BMDM cells; format: toxicity, cell-based; details: read-out: Selectivity Index

Compound | IC50 (Plasmodium falciparum [1]) | IC50 (Plasmodium falciparum [2]) | IC50 (Leishmania infantum [3]) | IC50 (Leishmania tropica [4]) | further results
Nc1ccc(-c2noc(C3CC(Br)=NO3)n2)cc1 (stereo not given) | 45.7 µM | 39.5 µM | 28.8 µM | 33.8 µM | –
O=C(O)c1ccc(-c2noc(C3CC(Br)=NO3)n2)cc1 (stereo not given) | 36.9 µM | 45.3 µM | – | – | inhibition (Leishmania infantum [5]): inactive; inhibition (Leishmania tropica [6]): inactive
BrC1=NOC(c2nc(-c3ccccc3)no2)C1 (stereo not given) | 52.7 µM | 64.8 µM | 17.3 µM | 43 µM | –
N[C@H](c1nc(-c2ccccc2)no1)[C@@H]1CC(Br)=NO1 | – | – | – | – | inhibition (Plasmodium falciparum [7]): inactive; inhibition (Plasmodium falciparum [8]): inactive
COc1ccc(-c2noc(C3CC(Br)=NO3)n2)cc1 (stereo not given) | 34.4 µM | 42.5 µM | 12 µM | 14.7 µM | –
BrC1=NOC(c2nc(-c3cccs3)no2)C1 (stereo not given) | 52.7 µM | 46 µM | 26.2 µM | 24.9 µM | –
FC(F)(F)c1ccc(-c2noc(C3CC(Br)=NO3)n2)cc1 (stereo not given) | 31 µM | 34 µM | 8.7 µM | 6.9 µM | –
BrC1=NOC(c2nnc(-c3ccccc3)s2)C1 (stereo not given) | 22.9 µM | 41.3 µM | 60.3 µM | – | inhibition (Leishmania tropica [6]): inactive
O=C(O)c1ccc(-c2noc(C3CC(Br)=NO3)n2)s1 (stereo not given) | 45.9 µM | 40.4 µM | – | – | inhibition (Leishmania infantum [5]): inactive; inhibition (Leishmania tropica [6]): inactive
Oc1ccc(-c2noc(C3CC(Br)=NO3)n2)cc1 (stereo not given) | 39 µM | 32.5 µM | 14.7 µM | 25.6 µM | –
BrC1=NOC(c2nc(-c3ccc4ccccc4c3)no2)C1 (stereo not given) | 27.8 µM | 27.2 µM | 10.5 µM | 5.3 µM | –
C[C@@H]1[C@H](O)[C@@H](C)/C=C/C=C/C=C/C=C/C=C/C=C/C=C/[C@H](O[C@@H]2O[C@H](C)[C@@H](O)[C@H](N)[C@@H]2O)C[C@@H]2O[C@](O)(C[C@@H](O)C[C@@H](O)[C@H](O)CC[C@@H](O)C[C@@H](O)CC(=O)O[C@H]1C)C[C@H](O)[C@H]2C(=O)O [AMPHOTERICIN B] | – | – | 0.11 µM | – | –
BrC1=NOC(c2ncc(-c3ccccc3)o2)C1 (stereo not given) | 32.2 µM | 39.3 µM | – | 50.7 µM | inhibition (Leishmania infantum [5]): inactive
CC(C)(C)c1ccc(-c2nnc(C3CC(Br)=NO3)o2)cc1 (stereo not given) | 0.035 µM | 0.058 µM | 3.5 µM | 7.5 µM | IC50 (Plasmodium falciparum [9]): 10.4 µM; IC50 (BMDM): 40 µM; selectivity ratio [10]: 1140; selectivity ratio [11]: 690; selectivity ratio [12]: 11; selectivity ratio [13]: 5
BrC1=NOC(c2nnc(-c3ccccc3)o2)C1 (stereo not given) | 16.7 µM | 15.1 µM | – | – | inhibition (Leishmania infantum [5]): inactive; inhibition (Leishmania tropica [6]): inactive
Fc1ccc(-c2noc(C3CC(Br)=NO3)n2)cc1 (stereo not given) | – | – | 9 µM | 10.9 µM | inhibition (Plasmodium falciparum [7]): inactive; inhibition (Plasmodium falciparum [8]): inactive
BrC1=NOC(c2nc(-c3ccsc3)no2)C1 (stereo not given) | 58.3 µM | 48.1 µM | 27.3 µM | 32.6 µM | –
BrC1=NOC(c2nc(-c3ccccc3)n[nH]2)C1 (stereo not given) | 35.3 µM | 43 µM | – | – | inhibition (Leishmania infantum [5]): inactive; inhibition (Leishmania tropica [6]): inactive
BrC1=NOC(c2nc(-c3ccc4c(c3)OCCO4)no2)C1 (stereo not given) | 29.8 µM | 32.7 µM | 25.6 µM | 39.4 µM | –
CC(C)(C)c1ccc(-c2noc(C3CC(Br)=NO3)n2)cc1 (stereo not given) | 3.1 µM | 3.5 µM | 0.29 µM | 0.31 µM | IC50 (BMDM): 37.3 µM; selectivity ratio [10]: 12; selectivity ratio [11]: 11; selectivity ratio [12]: 129; selectivity ratio [13]: 120
BrC1=NOC(c2nc(-c3ccccc3)cs2)C1 (stereo not given) | 45.8 µM | 39.7 µM | 28.8 µM | 33.8 µM | –
